Series [1] is described as follows: Potentiometric titration of the ligand DPDP. It is filed as physicochemical. The note with it: pH of 3 and above. The protocol: The compound DPDP was studied potentiometrically from pH 11.2 to 2.0. Data sets were collected on a custom-built automatic potentiometric titration apparatus composed of a METROHM 655 DOSIMAT automatic buret, a FISHER ACCUMET pH meter with a CORNING calomel combination electrode, a custom-blown water jacketed titration cell, a BRINKMAN LAUDA K-2/R constant temperature bath and a COMMODORE 64 computer. […] Data analysis was performed on an IBM-AT computer using the least squares program, BETA (Harris, W. et al, supra), and the data analysis program, HANDNBAR (Harris, W. et al, supra). The titrants were standardized by phenophthalein titration as follows: KOH was calibrated against potassium hydrogen phthalate (a primary standard), and HCl solutions were calibrated against the KOH standard. […] All solutions were made from distilled, deionized water that was further purified on a MILLI-Q cartridge system, degassed, and then kept under an atmosphere of argon which had been scrubbed for CO2 and O2. Additions of EDTA and Mn(II) solutions were performed using calibrated GILMOT pipets.

The conditions of series [2]: cited from earlier work.

Take `Cc1ncc(COP(=O)(O)O)c(CN(CCN(CC(=O)O)Cc2c(COP(=O)(O)O)cnc(C)c2O)CC(=O)O)c1O` [DPDP, N,N'-bis-(pyridoxal-5-phosphate)ethylenediamine-N,N'-diacetic acid or N,N'-bis(3-hydroxy-2-methyl-5-phosphonomethyl-4-pyridylmethyl)ethylenediamine-N,N'-diacetic acid]: the “ionization state of the ligand” value in series [1] is “anionic and possesses deprotonated metal binding sites”. On to `O=C(O)C(NCCNC(C(=O)O)c1ccccc1O)c1ccccc1O` (centres unmarked) [EHPG, N,N'-ethylenebis-2-(o-hydroxyphenyl)glycine], for which the “stability of the Fe(III) chelate” value in series [2] (Anderegg et al) is recorded as “high stability”. The “oxidation of manganese(II) in EHPG complexes” value in series [2] (above pH 5, also under inert atmospheres, Frost et al) is “irreversibly oxidized”. As for `O=C(O)CN(CCN(CC(=O)O)Cc1ccccc1O)Cc1ccccc1O` [HBED, N,N'-bis(2-hydroxybenzyl)ethylenediamine-N,N'-diacetic acid], the “log Kf (formation constant)” value in series [2] (manganese chelate, reported by L'Eplathenier et al) was 14.8. Also, in series [2] (titrations of L'Eplathenier et al, judged from Patch et al), the “oxidation of manganese(II) by the phenolic ligand during titration” value is given as “oxidized by the phenolic ligand”.

Values taken from patent publication US4933456A, “Dipyridoxyl phosphate NMRI contrast agents” (Salutar, Inc., priority 1987, dated 1990).
